Source: patent US20240307350A1, “5-METHOXY-N,N-DIMETHYLTRYPTAMINE (5-MEO-DMT) FOR TREATING DEPRESSION” (GH RESEARCH IRELAND LIMITED, priority 2019, published 2024)
Like-named read-outs stand apart in the source and are kept apart here.

How the values were obtained:
healthy volunteers = test: Clinical trial in healthy volunteers: intensity of the psychedelic effects (PPEQ); format: in vivo, human; settings: for PPEQ Intensity (0-100) / PPEQ Loss of Control (0-100) / PPEQ Profoundness (0-100) / PPEQ Total Score (0-100): group average
Experimental: (§1) A clinical trial was performed in which 5-MeO-DMT free base (purity not less than 99%) at different dose levels was administered via inhalation (as described in Example 1) in a single day to healthy volunteers who had prior experiences with the use of synthetic or naturally-occurring psychedelics. The trial was reviewed and approved by the relevant national competent authority and local medical ethics committee. The trial consisted of two parts: Part A, where single doses of 5-MeO-DMT dosage amounts of 2 mg, 6 mg, 12 mg and 18 mg were administered; and Part B, where an initial 5-MeO-DMT dosage amount of 6 mg was administered, and then, unless the participant had already experienced a peak psychedelic experience based on the PPEQ or the supervising physician had decided that further dose increases were inappropriate based on observed side effects, further subsequent dosage amounts of 12 mg and 18 mg were administered with about 3 hours in between each administration. Participants in Part A only received one dose and were not allowed to receive higher doses in later parts of Part A and were not allowed to participate in Part B. Participants were closely monitored for 3.5 hours after the last dose, with additional follow-up visits 1 day and 7 days after dosing. Various safety related measures (e.g., adverse event reporting, safety laboratory analyses, vital signs, ECG, CADSS, PVT, DSST, Prospective Memory Task (PMT)) as well as measures of the intensity of the psychedelic effects (MEQ30, ASC, PPEQ, subjective description of the psychedelic experience) were recorded. Pharmacokinetic analysis of 5-MeO-DMT and bufotenine plasma levels was performed at 1 hour and 3 hours after drug administration in Part A, and at 3 hours after drug administration in Part B.
18 participants were recruited into Part A of the study and 4 participants were recruited into Part B. 9 Participants were female and 13 participants were male. Median age was 29 years (range: 19 to 42 years). In Part A, 4 participants received 2 mg, 6 participants received 6 mg, 4 participants received 12 mg and 4 participants received 18 mg of 5-MeO-DMT. In Part B, 1 participant received 6 mg, 2 participants received 6 mg and then 12 mg and one participant received 6 mg, 12 mg and then 18 mg of 5-MeO-DMT.
The Peak Psychedelic Experience Questionnaire (PPEQ) has been developed by the inventor as an improved alternative to the oceanic boundlessness dimension of the ASC and the MEQ30 to allow a simpler and quicker assessment of the intensity of a psychedelic experience. The PPEQ is comprised of three questions, all to be scored from 0 to 100 by marking a Visual Analogue Scale between 0 and 100 mm: • 1. How intense was the experience? • 2. To what extent did you lose control? • 3. How profound (i.e., deep and significant) was the experience?
The PPEQ Total Score is the average of the scores of the three questions. A “peak psychedelic experience” is identified through achievement of a PPEQ Total Score of at least 75. A statistically significant correlation between the PPEQ Total Score and the oceanic boundlessness dimension of the ASC, respectively the MEQ30 Total Score, has been observed in the data set described in Example 3.

[1] = Clinical trial in healthy volunteers: 5-MeO-DMT and bufotenine plasma levels; format: in vivo, human; settings: human, plasma, inhaled, read-out: 5-MeO-DMT plasma levels, group median; for concentration at 1 h: 1 hour after administration; for concentration at 3 h: 3 hours after administration
Experimental: as §1

[2] = Part B max. dose (n = 4), highest dose for each participant (6, 12 or 18 mg)

SMILES: COc1ccc2[nH]cc(CCN(C)C)c2c1 [5-MeO-DMT, 5-methoxy-N,N-dimethyltryptamine]
- PPE achieved (fraction of participants who achieved a PPEQ Total Score of at least 75) (healthy volunteers; Part A 2 mg (n = 4)): 0/4
- PPEQ Intensity (0-100) (healthy volunteers; Part A 2 mg (n = 4)): 16
- PPEQ Loss of Control (0-100) (healthy volunteers; Part A 2 mg (n = 4)): 4
- PPEQ Profoundness (0-100) (healthy volunteers; Part A 2 mg (n = 4)): 7
- PPEQ Total Score (0-100) (healthy volunteers; Part A 2 mg (n = 4)): 9.0
- PPE achieved (fraction of participants who achieved a PPEQ Total Score of at least 75) (healthy volunteers; Part A 6 mg (n = 6)): 1/6
- PPEQ Intensity (0-100) (healthy volunteers; Part A 6 mg (n = 6)): 53
- PPEQ Loss of Control (0-100) (healthy volunteers; Part A 6 mg (n = 6)): 37
- PPEQ Profoundness (0-100) (healthy volunteers; Part A 6 mg (n = 6)): 42
- PPEQ Total Score (0-100) (healthy volunteers; Part A 6 mg (n = 6)): 43.8
- PPE achieved (fraction of participants who achieved a PPEQ Total Score of at least 75) (healthy volunteers; Part A 12 mg (n = 4)): 2/4
- PPEQ Intensity (0-100) (healthy volunteers; Part A 12 mg (n = 4)): 78
- PPEQ Loss of Control (0-100) (healthy volunteers; Part A 12 mg (n = 4)): 69
- PPEQ Profoundness (0-100) (healthy volunteers; Part A 12 mg (n = 4)): 51
- PPEQ Total Score (0-100) (healthy volunteers; Part A 12 mg (n = 4)): 65.5
- PPE achieved (fraction of participants who achieved a PPEQ Total Score of at least 75) (healthy volunteers; Part A 18 mg (n = 4)): 1/4
- PPEQ Intensity (0-100) (healthy volunteers; Part A 18 mg (n = 4)): 62
- PPEQ Loss of Control (0-100) (healthy volunteers; Part A 18 mg (n = 4)): 80
- PPEQ Profoundness (0-100) (healthy volunteers; Part A 18 mg (n = 4)): 36
- PPEQ Total Score (0-100) (healthy volunteers; Part A 18 mg (n = 4)): 59.2
- PPE achieved (fraction of participants who achieved a PPEQ Total Score of at least 75) (healthy volunteers; [2]): 4/4
- PPEQ Intensity (0-100) (healthy volunteers; [2]): 97
- PPEQ Loss of Control (0-100) (healthy volunteers; [2]): 94
- PPEQ Profoundness (0-100) (healthy volunteers; [2]): 78
- PPEQ Total Score (0-100) (healthy volunteers; [2]): 89.3
- first psychedelic symptoms after the inhalation (onset) (healthy volunteers; all participants, 2 mg to 18 mg via inhalation): within a few seconds
- concentration at 1 h ([1]; 2 mg, Part A 2 mg (n = 4), range 0.03-0.69): 0.38 ng/mL
- concentration at 3 h ([1]; 2 mg, Part A 2 mg (n = 4), range 0.01-0.04): 0.03 ng/mL
- concentration at 1 h ([1]; 6 mg, Part A 6 mg (n = 6), range 0.09-0.64): 0.33 ng/mL
- concentration at 3 h ([1]; 6 mg, Part A 6 mg (n = 6), range 0.00-0.06): 0.02 ng/mL
- concentration at 3 h ([1]; 6 mg, Part B 6 mg (n = 4), range 0.00-0.09): 0.01 ng/mL
- concentration at 1 h ([1]; 12 mg, Part A 12 mg (n = 4), range 0.13-0.29): 0.19 ng/mL
- concentration at 3 h ([1]; 12 mg, Part A 12 mg (n = 4), range 0.01-0.01): 0.01 ng/mL
- concentration at 1 h ([1]; 18 mg, Part A 18 mg (n = 4), range 0.15-2.42): 0.65 ng/mL
- concentration at 3 h ([1]; 18 mg, Part A 18 mg (n = 4), range 0.01-0.24): 0.04 ng/mL
- concentration at 3 h ([1]; Part B 6 mg, 12 mg (n = 3), range 0.01-0.05): 0.03 ng/mL
- concentration at 3 h ([1]; Part B 6 mg, 12 mg, 18 mg (n = 1), range 0.05-0.05): 0.05 ng/mL
